PMC8834506, “Optimization of Thymidine Kinase-Based Safety Switch for Neural Cell Therapy” (Cells, 2022)
Read-outs that look alike come from different tables or passages of the source.

Test system: hESC (HS420) expressing Ki67-SR39h D116E
Assay: ATP-based cell survival assay, GCV-induced cell death
Settings: Homo sapiens
Experimental: Our first generation of suicide gene was engineered with the wild type thymidine kinase (wt-TK). To improve the suicide gene efficacy, we investigated different TK variants; wt-TK, 30-GMK, SR39, SR39h, and SR39h D116E variants. These sequences were chosen based on the analysis of the literature investigating HSV1-TK variants, as well as a gain of function mutation in the CMV UL-97 kinase. The efficacy of each variants was determined as percentage of cell survival following prodrug treatment compared to non-treated hESC. For this purpose, we used the ATP-based assay, which measures cellular ATP content and thereby provides a reliable estimate of the number of healthy cells. The 50% effective concentration (EC50) was defined as the drug concentration required to reduce the percentage of cell survival by 50%. […] In order to optimize our system, we first replaced the wt-TK by the 30-GMK variant, which is a fusion between the 30 TK variant and guanylate kinase (GMK). Note that GMK is mediating the second phosphorylation step of antiviral nucleoside analogs. […] Microbial codon usage might not yield optimal results in human cells. We therefore adapted the SR39 sequence to a typical human codon usage. […]
Figure 1 EC50 of ganciclovir (GCV) in cell expressing different thymidine kinase (TK) variants. […] Number of surviving cells was monitored using bioluminescent ATP-based assay. […]

Nc1nc(O)c2ncn(COC(CO)CO)c2n1 [GCV, ganciclovir]
EC50 (96 h, read-out: GCV EC50 in M): 0.56 nM | EC50 (96 h GCV exposure, SR39h D116E variant, read-out: EC50 of GCV (cell survival)): 0.6 nM
